Patent US10314785B2, “Sterile pharmaceutical compositions” (NORTON HEALTHCARE LTD, priority 2004, dated 2019)
≈ marks a conversion by molar mass, not a printed value.

Experiments:
[1] = suspensions sterilized by a wet steam process; cited from earlier work
[2] = Heat sterilization of beclomethasone dipropionate concentrates: content, impurities, particle size; type: physicochemical; details: 121/30, data not shown
Protocol: Determination of impurity levels and particle size were also determined as outlined above.

[3] = Water solubility of budesonide at sterilizing temperatures; type: physicochemical
Protocol: A balance is required between the solubility of the glucocorticosteroid and the amount of the glucocorticosteroid used per unit of solvent such that at least 50% of the glucocorticosteroid is suspended in the solvent. For example, for budesonide, at the sterilizing temperatures used herein the water solubility is about 7 mg/ml. Therefore, using 15 mg of budesonide per […] provides 53% of budesonide as a suspension. Preferably at least 60% of the glucocorticosteroid is suspended in the solvent although this value could be at least 70% or at least 80%.

change in beclomethasone content upon heating in the autoclave [2] | change in particle size distribution on autoclaving [2] | fraction of budesonide suspended ([3]; using 15 mg of budesonide per 1 mg water) | solubility ([3]; water, at the sterilizing temperatures used herein) | Compound | decrease in active ingredient content [1] | increase in degradation products [1] | increase in impurities upon heating in the autoclave [2]
no significant change | no significant change |  |  | CCC(=O)OCC(=O)[C@@]1(OC(=O)CC)[C@@H](C)C[C@H]2[C@@H]3CCC4=CC(=O)C=C[C@]4(C)[C@@]3(Cl)[C@@H](O)C[C@@]21C [beclomethasone, beclomethasone dipropionate] | 8-9% | 10-11% | no significant change in beclomethasone content or increase in impurities
 |  | 53% | ~7000 µg/mL (≈ 16.3 mM) | CCCC1O[C@@H]2C[C@H]3[C@@H]4CCC5=CC(=O)C=C[C@]5(C)[C@H]4[C@@H](O)C[C@]3(C)[C@]2(C(=O)CO)O1 (stereo partly shown) [budesonide] |  |  | 
